The experiment concerns inflammation induced by tetradecanoyl phorbol acetate (TPA). In words: TPA model: inflammation (ear edema) induced by tetradecanoyl phorbol acetate in mice. The class given is in vivo. The following applies: 100 μg/ear topical, mouse ear, TPA stimulus, edema measured four hours later. The source says:
One such model is the inflammation induced by tetradecanoyl phorbol acetate (TPA). The test methods are modified from those of Marks et al. (Cancer Res, 36, p. 2636, 1976). The TPA model is a murine model which mimics many of the inflammatory changes which occur in human disease such as psoriasis. In this model, elevated levels of inflammatory arachidonic acid metabolites are found, and an influx or polymorphonuclear leukocytes (PMN) is observed. The procedure used to evaluate the compounds of this invention is as follows: the test compound (100 μg/ear) is applied to the ears of mice in an appropriate vehicle, such as acetone, and then the inflammatory stimulus is applied to the right ear. Four hours later, the edema is measured by removing standard sized discs from the mouse ears using a biopsy punch. The masses of the discs are then determined.

Consider `CCC(n1ccnc1)C(O)(c1ccc(F)cc1)c1ccc(F)cc1` (racemic) [Example 3a, 1,1-bis(4-fluorophenyl)-2-(1-imidazolyl)butanol], for which the “% Inhibition of Control Inflammation” value worked out at 40%.

In the case of `OC(CCCn1ccnc1)(c1ccc(F)cc1)c1ccc(F)cc1` [Example 1a, 1,1-bis(4-fluorophenyl)-4-(1-imidazolyl)butanol], the “% Inhibition of Control Inflammation” value came to 31%.

`OC(Cn1ccnc1)(c1ccc(F)cc1)c1ccc(Br)cc1` (centres unmarked) [Example 2b, 1-(4-fluorophenyl)-1-(4-bromophenyl)-2-(1-imidazolyl)-ethanol]: the “% Inhibition of Control Inflammation” value came to 41%.

Regarding `CC(n1ccnc1)C(O)(c1ccc(F)cc1)c1ccc(F)cc1` (centres unmarked) [Example 3b], the “% Inhibition of Control Inflammation” value is on record as 40%.

`CCCC(n1ccnc1)C(O)(c1ccc(F)cc1)c1ccc(F)cc1` (centres unmarked) [Example 3c]: the “% Inhibition of Control Inflammation” value was 30%.

Turning to `CC(n1ccnc1)C(O)(c1ccc(Cl)cc1)c1ccc(Cl)cc1` (centres unmarked) [Example 3e], the “% Inhibition of Control Inflammation” value was 55%.

Regarding `Cc1ccc(C(O)(c2ccc(C)cc2)[C@H](C)n2ccnc2)cc1` [Example 4a, (S)-1,1-bis(4-methylphenyl)-2-(1-imidazolyl)propanol], the “% Inhibition of Control Inflammation” value is 33%.

Take `C[C@@H](n1ccnc1)C(O)(c1ccc(Cl)cc1)c1ccc(Cl)cc1` [Example 5a, (R)-1,1-bis(4-chlorophenyl)-2-(1-imidazolyl)propanol]: the “% Inhibition of Control Inflammation” value is on record as 61%.
